We go through 2 compounds from BindingDB's records for doi:10.1016/s0960-894x(98)00476-4 (University of Michigan, 1999).

Molecules are shown by their SMILES.

The nature of this test: Binding affinity against Opioid receptor delta 1.

`CC1(C)SSC[C@@H](NC(=O)[C@@H](N)Cc2ccccc2)C(=O)N[C@@H](Cc2ccccc2)C(=O)N[C@H]1C(=O)O` [10-(2-Amino-3-phenyl-propionylamino)-7-benzyl-3,3-dimethyl-6,9-dioxo-1,2-dithia-5,8-diaza-cycloundecane-4-carboxylic acid] came in with a Ki of 42 nM.

`CC1(C)SCCSC[C@@H](NC(=O)[C@@H](N)Cc2ccccc2)C(=O)N[C@@H](Cc2ccccc2)C(=O)N[C@H]1C(N)=O` [12-(2-Amino-3-phenyl-propionylamino)-9-benzyl-5,5-dimethyl-8,11-dioxo-1,4-dithia-7,10-diaza-cyclotridecane-6-carboxylic acid amide] registered a Ki of 1020 nM.

A word on the Ki: it is the dissociation constant of the complex between target and ligand, obtained from inhibition or displacement.
